Measurements as given in ChEMBL document CHEMBL3856244, “Hydrogen peroxide derived from marine peroxy sesquiterpenoids induces apoptosis in HCT116 human colon cancer cells” (Bioorg Med Chem Lett, 2016).
The source made the active and inactive calls. The calls are words filed in the database; no cut-off is given here.

Columns and labels:
[1] = Cytotoxicity against human HCT116 cells assessed as decrease in cell viability after 17 hrs by MTT assay; type: functional, cell-based; conditions: HCT-116, 17 h
HCT-116 [2] = experiment: Cytotoxicity against human HCT116 cells assessed as decrease in cell viability at 6.25 to 200 uM after 17 hrs by MTT assay; type: functional, cell-based
HCT-116 [3] = experiment: Induction of apoptosis in human HCT116 cells assessed as nuclear condensation at 100 uM after 48 hrs by Hoechst 33342 staining based assay; type: functional, cell-based
HCT-116 [4] = experiment: Induction of apoptosis in human HCT116 cells assessed as increase in caspase 3/7 activation at 50 to 200 uM after 17 hrs by luciferase coupled luminescence assay; type: functional, cell-based
HCT-116 [5] = experiment: Induction of ROS generation in human HCT116 cells at 12.5 uM after 5 mins by DCFH-DA probe based fluorescence assay relative to control; type: functional, cell-based
HCT-116 [6] = experiment: Induction of H2O2 accumulation in human HCT116 cells at 12.5 uM relative to control; type: functional

CC1=C[C@@H]2C(=CC1)[C@](C)(OO)CC[C@@H]2C(C)C
IC50 [1]: 61.2 µM
Activity (HCT-116 [2]): Active
Activity (HCT-116 [3]): Active
Activity (HCT-116 [4]): Active
Activity (HCT-116 [5]): Active
fold change (FC) (HCT-116 [6]): 2 - 3

Cc1ccc2c(c1)[C@H](C(C)C)CC[C@@]2(C)OO
IC50 [1]: 43.7 µM
Activity (HCT-116 [2]): Active
Activity (HCT-116 [3]): Active
Activity (HCT-116 [4]): Active
Activity (HCT-116 [5]): Active
fold change (FC) (HCT-116 [6]): 2 - 3

CC(C)[C@H]1CC[C@H](C)[C@@]23CC[C@@](C)(C=C12)OO3
IC50 [1]: 38.6 µM
Activity (HCT-116 [2]): Active
Activity (HCT-116 [3]): Active
Activity (HCT-116 [4]): Active
Activity (HCT-116 [5]): Active
fold change (FC) (HCT-116 [6]): 2 - 3
